This is an account of results in patent publication US20220218678A1, “USE OF 1-PHENYL-2-PYRIDINYL ALKYL ALCOHOL DERIVATIVES FOR TREATING CYSTIC FIBROSIS” (CHIESI FARMACEUTICI S.p.A., priority 2017, published 2022).

The target of one data set is T1, ΔF508 CFTR (Homo sapiens, UniProt P13569, DEL508-508).
T1 construct: cells expressing endogenous ΔF508-CFTR; endogenous in cells; host or cells: CFBE41o− human CF bronchial epithelial cell line (gift from D. C. Gruenert), homozygous ΔF508
Nature of the data set: HS-YFP assay, CFTR potentiator activity in CFBE41o− cells. The format is cell-based. To be noted: 10 minutes exposure, following CFTR correction by VRT809 (5 μM, 24 h). The text has this:
The CF human bronchial epithelial cell line (CFBE41o−), homozygous for the ΔF508 mutation of the CFTR protein (Ehrhard et al., 2006, Cell Tissue Res. Vol. 323, p. 405-415; kind gift from D. C. Gruenert, California Pacific Medical Center Research Institute, San Francisco, Calif., USA) and the human bronchial epithelial cell line 16HBE14o−, wildtype (wt) for the CFTR protein (kindly provided by P. Davis, Case Western Reserve University School of Medicine, Cleveland, Ohio, USA) were maintained in EMEM (Lonza) supplemented with 10% FBS and 1% Glutamax (Sigma). […]
The CFTR activity in epithelial cells was evaluated by Yellow Fluorescence Protein (YFP) with a protocol modified from the method published by Averna et al. (PLoS One, 2013, vol. 8, e66089). […]
The potential effect of different agents on the activity of CFTR in CFBE41o− cells was analysed by the HS-YFP assay, combining a short exposure (10 minutes) with agents as follows: CHF6001, Roflumilast or VRT 770 (5 μM), alone or in combination, with a 24 h pre-treatment with the CFTR corrector VRT809 (5 μM). […]

For data set [1] the following is noted: healthy volunteers, daily doses of up to 4800 μg (4.8 mg) for 14 days; cited from earlier work.

T1 sequence (P13569 with tags, fused parts or gaps DEL508-508): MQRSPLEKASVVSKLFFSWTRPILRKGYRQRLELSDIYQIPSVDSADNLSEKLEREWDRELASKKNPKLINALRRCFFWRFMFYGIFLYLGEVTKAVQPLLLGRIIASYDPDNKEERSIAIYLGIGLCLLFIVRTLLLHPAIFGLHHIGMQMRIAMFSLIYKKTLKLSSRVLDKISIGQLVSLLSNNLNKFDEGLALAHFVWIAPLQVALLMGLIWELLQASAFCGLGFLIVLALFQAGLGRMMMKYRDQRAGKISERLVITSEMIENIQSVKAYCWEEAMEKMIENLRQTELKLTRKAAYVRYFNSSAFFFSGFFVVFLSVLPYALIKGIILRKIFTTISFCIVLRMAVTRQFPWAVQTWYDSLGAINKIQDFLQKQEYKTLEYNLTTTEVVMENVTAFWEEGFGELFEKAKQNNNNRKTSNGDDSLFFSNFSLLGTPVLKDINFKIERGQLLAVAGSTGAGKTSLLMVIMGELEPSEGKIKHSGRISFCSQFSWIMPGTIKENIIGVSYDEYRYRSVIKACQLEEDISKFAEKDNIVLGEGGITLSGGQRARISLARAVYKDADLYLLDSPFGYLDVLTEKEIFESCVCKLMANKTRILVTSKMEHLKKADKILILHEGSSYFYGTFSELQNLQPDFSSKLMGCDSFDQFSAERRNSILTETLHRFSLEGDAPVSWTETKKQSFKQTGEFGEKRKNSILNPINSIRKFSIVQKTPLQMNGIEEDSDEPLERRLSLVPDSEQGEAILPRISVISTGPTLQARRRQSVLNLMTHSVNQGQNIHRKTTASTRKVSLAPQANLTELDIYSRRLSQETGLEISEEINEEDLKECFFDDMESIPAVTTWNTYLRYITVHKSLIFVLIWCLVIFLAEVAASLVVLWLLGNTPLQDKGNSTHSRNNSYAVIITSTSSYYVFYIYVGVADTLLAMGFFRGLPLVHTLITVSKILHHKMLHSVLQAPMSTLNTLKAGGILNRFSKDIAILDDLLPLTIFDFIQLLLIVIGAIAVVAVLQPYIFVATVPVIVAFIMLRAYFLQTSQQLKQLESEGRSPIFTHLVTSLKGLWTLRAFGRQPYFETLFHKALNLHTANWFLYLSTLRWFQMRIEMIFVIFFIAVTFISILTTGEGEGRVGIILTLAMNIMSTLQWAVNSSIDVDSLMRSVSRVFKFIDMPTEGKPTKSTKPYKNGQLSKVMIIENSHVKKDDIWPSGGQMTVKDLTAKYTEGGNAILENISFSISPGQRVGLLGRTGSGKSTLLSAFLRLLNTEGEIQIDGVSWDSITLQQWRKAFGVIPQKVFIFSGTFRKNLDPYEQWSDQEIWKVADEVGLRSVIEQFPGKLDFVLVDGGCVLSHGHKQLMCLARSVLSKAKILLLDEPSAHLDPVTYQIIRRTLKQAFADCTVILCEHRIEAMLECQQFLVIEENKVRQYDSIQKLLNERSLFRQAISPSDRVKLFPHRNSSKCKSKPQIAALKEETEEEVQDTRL

As to `CS(=O)(=O)Nc1ccc(C(=O)OC(Cc2c(Cl)c[n+]([O-])cc2Cl)c2ccc(OC(F)F)c(OCC3CC3)c2)cc1OCC1CC1` (centres unmarked) [CHF6001, 3-Cyclopropylmethoxy-4-methanesulfonylamino-benzoic acid 1-(3-cyclopropylmethoxy-4-difluoromethoxy-phenyl)-2-(3,5-dichloro-1-oxy-pyridin-4-yl)-ethyl ester], at ΔF508 CFTR, the “CFTR activity (delta fluorescence un-stimulated versus stimulated cells)” value is given as “comparable to the reference compound VRT 770”. Moreover, in data set [1], the safety and tolerability result was “Good safety and tolerability”.
